Values of other authors as cited in patent US20170072072A1, “PH SENSITIVE FLUORESCENT COMPOUNDS AND METHODS FOR TUMOR DETECTION” (THE METHODIST HOSPITAL SYSTEM, priority 2014, published 2017).

Settings: in DMSO

quantum yield Φ of reference: 0.106
Compound: CC1(C)C(/C=C/C=C/C=C/C=C2\N(CCCCS(=O)(=O)O)c3ccc4ccccc4c3C2(C)C)=[N+](CCCCS(=O)(=O)[O-])c2ccc3ccccc3c21 [indocyanine green]
